Measurements as given in patent publication US12209074B2, “SHP2 phosphatase allosteric inhibitor” (BEIJING SHENOGEN PHARMA GROUP LTD., priority 2019, dated 2025).

What was measured:
SHP2 = SHP2 (Homo sapiens (Human), UniProt Q06124); experiment: Detection of in vitro SHP2 protein activity by DiFMUP fluorescence; format: biochemical; conditions: read-out: Phosphatase activity SHP2 IC50; DiFMUP substrate, fluorescence Ex340/Em450, 60 min pre-incubation with polypeptide; read-out: Proteinase activity SHP2 IC50
Excerpt: The screening method of SHP2 protein activity was established by fluorescence detection. The basic principle is: SHP2 as phosphatase can catalyze the dephosphorization of DiFMUP to form DiFMU and free phosphate groups. The product DiFMU emits fluorescence under 340 nm excitation, and 450 nm emission is collected. If the binding of small molecule compounds with SHP2 can inhibit the activity of SHP2 enzyme, the 450 nm emission light detected will be weakened, and the activity of SHP2 enzyme will be finally reflected by the intensity of fluorescence value.
The specific operation was as follows: the 10 mM compound stock solution was diluted to 1 mM with DMSO, and then diluted 3 times with DMSO. 95 μL reaction buffer (60 mM HEPES), 75 mM NaCl, 75 mM KCl, 1 mM EDTA, 5 mM DTT, 1 μL gradient diluted compound, 2 μL SHP2 (concentration was 2 μg/μL) and 1 μL polypeptide (concentration was 50 mM) were added into each well of a 96 well flat clear bottom black plate (costar, 3603). The above test mixture was incubated at room temperature in dark for 60 minutes. Then 2 μL of 10 mM DiFMUP was added into each well, and was incubated at room temperature for 30 minutes. Fluorescence value was determined in the enzyme reader at Ex340/Em450. IC50 of the compounds was obtained by the data analysis software Prism.

[1] = test system: Human non-small cell lung cancer NCI-H358; experiment: Cell proliferation assay (CellTiter-Glu) in NCI-H358; format: cell-based; conditions: 5 days, NCI-H358 cells, cell viability by CellTiter-Glu, compound 0.3 nM-2 μM, medium and compound renewed after 3 days
Experimental: Cell proliferation inhibition screening method was established by CellTier-Glu® test reagent from Promega.
Human non-small cell lung cancer NCI-H358 was cultured by RPMI-1640 (Gibco®) medium with 10% fetal bovine serum (Gibco®) at 37° C., 95% air and 5% CO2, in 25 cm^2 or 75 cm^2 plastic culture bottle ((Nunc®) and passaged 2-3 times a week.
The cells were seeded on the 96 well cell culture plate (Nunc®) at the density of 2*10^3/well, 90 μL/well, and cultured at 37° C., 95% air and 5% CO2. The compound to be tested was added 24 hours later: the compound was diluted 3 times with DMSO from the concentration of 2 mM compound (dissolved in DMSO). […] 10 μL of the compound diluted by culture medium was added into the culture plate seeded with cells. The final concentration of DMSO in cell culture medium was 0.1%, and the final concentration of test compound was 0.3 nM-2 μM. The cells were incubated at 37° C. for 3 days. The culture medium was substituted with 90 μL/well fresh complete medium. According to the above diluting method of compounds, the compound to be tested was added.
After 5 days, cell viability was tested by CellTiter-Glu (Promega) kit, and finally, the semi-inhibitory concentration of compounds on cell proliferation, i.e. IC50 was calculated by Prism program.

hERG channel = hERG channel (Homo sapiens (Human), UniProt Q12809); experiment: hERG inhibitory activity, whole cell patch clamp in hERG-transfected HEK293 cells; format: cell-based; conditions: HEK293 cells transfected with hERG, tail current, tested at 30, 10, 2, 0.5, 0.1 μM
Experimental: Patch Clamp Amplifier System (Multiclamp 700B Amplifier) (AXON), Olympus microscope (Olympus IX51/71/73), and MP285 micromanipulator were used.
HEK293 cell line for transfecting hERG was purchased from Invitrogen Company. The cells were grown in the culture medium with 85% DMEM, 10% fetal bovine serum, 0.1 mM NEAA, 25 mM HEPES buffer, 100 U/mL penicillin-streptomycin, 5 μg/mL blasticidin and 400 μg/mL G418 geneticin.
The cells were passaged three times a week and digested with TrypLE Express to maintain a fusion degree of about 40% to 80%. Before testing, the cells were seeded at the density of 5*10^5 cells/petri dish with a diameter of 6 cm and the cells were induced with 1 μg/ml doxycycline for 48 hours.
The test concentration of the compound solution was 30, 10, 2, 0.5, 0.1 μM after 1000-fold dilution and the final concentration of DMSO was in the range of 0.1%.
The manipulator was adjusted to move the electrode tip to the cell surface to form a high sealing. Liquid connection potential and fast capacitance were compensated, and the cell membrane was broken to form a whole cell recording mode. The membrane potential was set as −60 mV to ensure that the HERG channel was not opened. Cslow on the amplifier was used to eliminate the peak of capacity current. Holding voltage was set as […]. The leakage current test was performed at −80 mV for 500 ms. +30 mV was depolarized for 4.8 seconds, and HERG channel was activated. The voltage was restored to −50 mV for 5.2 seconds, and the tail current was observed. Peak current suppression=[1−(peak tail currentinhibitor−peak tail currentpositive control)/(peak tail currentblank−peak tail currentpositive control)]*100
The dose response curve of hERG current inhibition rate versus the concentration of the tested compound was plotted by using Graphpad Prism 8.0 software.

Chain of hERG channel (Q12809 whole entry): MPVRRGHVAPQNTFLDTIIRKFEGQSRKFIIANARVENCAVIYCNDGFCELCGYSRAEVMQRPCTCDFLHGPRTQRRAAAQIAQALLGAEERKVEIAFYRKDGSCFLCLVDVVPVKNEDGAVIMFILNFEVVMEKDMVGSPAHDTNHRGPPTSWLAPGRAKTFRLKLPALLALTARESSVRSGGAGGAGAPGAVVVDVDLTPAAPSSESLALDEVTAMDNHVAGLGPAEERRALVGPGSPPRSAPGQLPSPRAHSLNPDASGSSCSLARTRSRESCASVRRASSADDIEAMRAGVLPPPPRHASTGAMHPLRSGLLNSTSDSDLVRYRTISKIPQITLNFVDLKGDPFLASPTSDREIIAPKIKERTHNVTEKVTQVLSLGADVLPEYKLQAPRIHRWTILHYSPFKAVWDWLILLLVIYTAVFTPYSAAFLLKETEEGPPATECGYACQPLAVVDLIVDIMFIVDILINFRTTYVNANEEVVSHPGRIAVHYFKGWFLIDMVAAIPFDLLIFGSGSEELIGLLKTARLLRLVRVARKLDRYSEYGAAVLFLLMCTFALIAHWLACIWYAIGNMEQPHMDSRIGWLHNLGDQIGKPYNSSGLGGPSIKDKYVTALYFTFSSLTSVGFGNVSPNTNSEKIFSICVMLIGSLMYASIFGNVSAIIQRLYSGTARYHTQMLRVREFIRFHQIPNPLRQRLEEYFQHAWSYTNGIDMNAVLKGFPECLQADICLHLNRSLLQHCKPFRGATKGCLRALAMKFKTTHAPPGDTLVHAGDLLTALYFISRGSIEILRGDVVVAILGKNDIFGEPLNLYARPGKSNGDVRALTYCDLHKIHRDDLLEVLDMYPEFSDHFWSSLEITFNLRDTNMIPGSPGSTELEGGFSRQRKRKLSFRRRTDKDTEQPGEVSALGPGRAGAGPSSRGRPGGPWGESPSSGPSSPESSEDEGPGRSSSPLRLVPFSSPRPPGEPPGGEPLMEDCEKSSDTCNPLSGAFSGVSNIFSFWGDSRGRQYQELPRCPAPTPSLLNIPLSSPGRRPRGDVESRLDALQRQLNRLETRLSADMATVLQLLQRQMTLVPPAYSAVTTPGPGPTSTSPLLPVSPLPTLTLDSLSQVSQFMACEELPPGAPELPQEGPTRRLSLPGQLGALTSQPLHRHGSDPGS
Chain of SHP2 (Q06124 whole entry, species assumed): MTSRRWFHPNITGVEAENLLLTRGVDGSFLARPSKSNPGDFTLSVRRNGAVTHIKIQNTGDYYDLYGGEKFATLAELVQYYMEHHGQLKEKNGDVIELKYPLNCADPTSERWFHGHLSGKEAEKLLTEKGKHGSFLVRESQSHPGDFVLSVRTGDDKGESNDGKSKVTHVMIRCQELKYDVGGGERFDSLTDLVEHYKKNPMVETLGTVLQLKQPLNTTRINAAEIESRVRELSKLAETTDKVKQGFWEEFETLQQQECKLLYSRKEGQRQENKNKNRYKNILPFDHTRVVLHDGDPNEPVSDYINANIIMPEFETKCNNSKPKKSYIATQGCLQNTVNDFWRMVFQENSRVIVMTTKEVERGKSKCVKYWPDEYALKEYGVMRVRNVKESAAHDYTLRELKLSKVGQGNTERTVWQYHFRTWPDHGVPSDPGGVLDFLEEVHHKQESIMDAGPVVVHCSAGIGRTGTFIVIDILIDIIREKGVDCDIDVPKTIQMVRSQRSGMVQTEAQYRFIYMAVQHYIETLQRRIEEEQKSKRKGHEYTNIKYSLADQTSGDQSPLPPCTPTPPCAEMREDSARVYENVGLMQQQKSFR

With `Cc1nc(N2CCC3(CC2)Cc2ccccc2[C@H]3N)c(CO)nc1-c1cccc(Cl)c1Cl` [Compound 1, (S)-(3-(1-amino-1,3-dihydrospiro[indene-2,4′-piperidin]-1′-yl)-6-(2,3-dichlorophenyl)-5-methylpyrazin-2-yl)methanol] the IC50 (SHP2) was 9 nM, the IC50 [1] was 88 nM and the IC50 (hERG channel) was < 100 nM.
In the case of `Cc1nc(N2CCC3(CC2)Cc2ccc(C#N)cc2[C@H]3N)c(CO)nc1-c1cccc(Cl)c1Cl` [Compound 2, (S)-1-amino-1′-(5-(2,3-dichlorophenyl)-3-(hydroxymethyl)-6-methylpyrazin-2-yl)-1,3-dihydrospiro[indene-2,4′-piperidine]-6-carbonitrile], the IC50 (SHP2) is reported as 35 nM and the IC50 [1] is reported as 84 nM.
For `Cc1nc(N2CCC3(CC2)Cc2ncccc2[C@H]3N)c(CO)nc1-c1cccc(Cl)c1Cl` [Compound 13, (S)-(3-(5-amino-5,7-dihydrospiro[cyclopenta[b]pyridine-6,4′-piperidin]-1′-yl)-6-(2,3-dichlorophenyl)-5-methylpyrazin-2-yl)methanol], the IC50 [1] was 1.6 nM and the IC50 (hERG channel) was < 100 nM.
Work on `Cc1ccc2c(c1)[C@@H](N)C1(CCN(c3nc(C)c(-c4ccnc(Cl)c4Cl)nc3CO)CC1)C2` [Compound 21] yielded an IC50 [1] of 11 nM and an IC50 (hERG channel) of 3030 nM.
With `Cc1nc(N2CCC3(CC2)Cc2ccccc2[C@H]3N)c(CO)nc1-c1cncc(Cl)c1` [Compound 44] the IC50 [1] was > 1000 nM.
For `Cc1nc(N2CCC3(CC2)Cc2ccccc2[C@H]3N)c(CO)nc1-c1cnc(N)cc1Cl` [Compound 45], the IC50 [1] was > 1000 nM.
`COc1ccc(-c2nc(CO)c(N3CCC4(CC3)Cc3ncccc3[C@H]4N)nc2C)c(Cl)c1` [Compound 46] gave an IC50 [1] of 379 nM.
For `Cc1nc(N2CCC3(CC2)Cc2ccccc2[C@H]3N)c(CO)nc1-c1cc(N)nc(Cl)c1Cl` [Compound 47], the IC50 [1] was 30 nM and the IC50 (hERG channel) was 4290 nM.
In the case of `Cc1ccc2c(c1)[C@H](N)C1(CCN(c3nc(C)c(-c4ccnc(Cl)c4Cl)nc3CO)CC1)C2` [Compound 48], the IC50 [1] is reported as > 1000 nM.
In the case of `Cc1cnc2c(c1)[C@@H](N)C1(CCN(c3nc(C)c(-c4ccnc(Cl)c4Cl)nc3CO)CC1)C2` [Compound 49], the IC50 [1] is reported as 28 nM and the IC50 (hERG channel) is reported as 1800 nM.
`Cc1cnc2c(c1)[C@H](N)C1(CCN(c3nc(C)c(-c4ccnc(Cl)c4Cl)nc3CO)CC1)C2` [Compound 50] gave an IC50 [1] of 453 nM.
`Cc1cnc2c(c1)[C@@H](N)C1(CCN(c3nc(C)c(-c4ccncc4Cl)nc3CO)CC1)C2` [Compound 51] gave an IC50 [1] of 81 nM.
With `Cc1cnc2c(c1)[C@H](N)C1(CCN(c3nc(C)c(-c4ccncc4Cl)nc3CO)CC1)C2` [Compound 52] the IC50 [1] was > 1000 nM.
Work on `COc1ccc(-c2nc(CO)c(N3CCC4(CC3)Cc3ccccc3[C@H]4N)nc2C)c(Cl)c1Cl` [Compound 53] yielded an IC50 [1] of 328 nM.
`Cc1nc(N2CCC3(CC2)Cc2ccccc2[C@H]3N)c(CO)nc1-c1cc(N)nc(C)c1Cl` [Compound 54] showed an IC50 [1] of 83 nM.
For `Cc1ccnc(-c2nc(CO)c(N3CCC4(CC3)Cc3ccccc3[C@H]4N)nc2C)c1Cl` [Compound 55], the IC50 [1] was > 1000 nM.
`COc1ccc(-c2nc(CO)c(N3CCC4(CC3)Cc3ccccc3[C@H]4N)nc2C)c(Cl)n1` [Compound 56] showed an IC50 [1] of 182 nM.
`Cc1nc(N2CCC3(CC2)Cc2ccccc2[C@H]3N)c(CO)nc1-c1ccc(=O)[nH]c1Cl` [Compound 57] was tested, and the IC50 [1] was > 1000 nM.
In the case of `CNc1cc(Cl)c(-c2nc(CO)c(N3CCC4(CC3)Cc3ccccc3[C@H]4N)nc2C)cn1` [Compound 58], the IC50 [1] is reported as > 1000 nM.
In the case of `CNc1ccc(-c2nc(CO)c(N3CCC4(CC3)Cc3ccccc3[C@H]4N)nc2C)c(Cl)c1C(F)(F)F` [Compound 59], the IC50 [1] is reported as 115 nM.
`Cc1cnc2c(c1)[C@@H](N)C1(CCN(c3nc(C)c(-c4ccnc(C)c4Cl)nc3CO)CC1)C2` [Compound 60] gave an IC50 [1] of 75 nM.
`Cc1cncc(-c2nc(CO)c(N3CCC4(CC3)Cc3ccccc3[C@H]4N)nc2C)c1Cl` [Compound 61] was tested, and the IC50 [1] was 63 nM.
In the case of `Cc1nc(N2CCC3(CC2)Cc2ccccc2[C@H]3N)c(CO)nc1-c1ccnc(C(F)(F)F)c1Cl` [Compound 62], the IC50 [1] is reported as 15 nM and the IC50 (hERG channel) is reported as 4230 nM.
`Cc1ccc2c(c1)[C@@H](N)C1(CCN(c3nc(C)c(-c4cc(N)nc(Cl)c4Cl)nc3CO)CC1)C2` [Compound 63] showed an IC50 [1] of 40 nM.
Work on `Cc1cnc2c(c1)[C@@H](N)C1(CCN(c3nc(C)c(-c4cc(N)nc(Cl)c4Cl)nc3CO)CC1)C2` [Compound 64] yielded an IC50 [1] of 22 nM and an IC50 (hERG channel) of 6130 nM.
`Cc1cnc2c(c1)[C@@H](N)C1(CCN(c3nc(C)c(-c4ccnc(Cl)c4Cl)nc3C(C)O)CC1)C2` (some centres unmarked) [Compound 68] gave an IC50 [1] of 530 nM.
`COc1ccc2c(c1)[C@@H](N)C1(CCN(c3nc(C)c(-c4ccnc(Cl)c4Cl)nc3CO)CC1)C2` [Compound 72] showed an IC50 [1] of 65.9 nM and an IC50 (hERG channel) of 2590 nM.
`COc1nccc(-c2nc(CO)c(N3CCC4(CC3)Cc3ncc(C)cc3[C@H]4N)nc2C)c1Cl` [Compound 76] gave an IC50 [1] of 25 nM and an IC50 (hERG channel) of 2110 nM.
In the case of `Cc1nc(N2CCC3(CC2)Cc2ccccc2[C@H]3N)c(CO)nc1-c1ccnc(C#N)c1Cl` [Compound 77], the IC50 [1] is reported as 33 nM and the IC50 (hERG channel) is reported as 620 nM.
